Assay results: ChEMBL document CHEMBL5537153, “Modifications to 1-(4-(2-Bis(4-fluorophenyl)methyl)sulfinyl)alkyl Alicyclic Amines That Improve Metabolic Stability and Retain an Atypical DAT Inhibitor Profile” (J Med Chem, 2024)

How the values were obtained:
[1] = organism: Rattus norvegicus; experiment: Selectivity ratio of Ki for SERT in Sprague-Dawley rat brainstem to Ki for DAT in Sprague-Dawley rat striatum
[2] = biological target: Sodium-dependent dopamine transporter (Rattus norvegicus, UniProt P23977); experiment: Displacement of [3H]WIN35428 from DAT in Sprague-Dawley rat striatum incubated for 120 mins by scintillation counting analysis; type: tissue-based
Sequence of Sodium-dependent dopamine transporter (Rattus norvegicus, UniProt P23977) (P23977 whole entry): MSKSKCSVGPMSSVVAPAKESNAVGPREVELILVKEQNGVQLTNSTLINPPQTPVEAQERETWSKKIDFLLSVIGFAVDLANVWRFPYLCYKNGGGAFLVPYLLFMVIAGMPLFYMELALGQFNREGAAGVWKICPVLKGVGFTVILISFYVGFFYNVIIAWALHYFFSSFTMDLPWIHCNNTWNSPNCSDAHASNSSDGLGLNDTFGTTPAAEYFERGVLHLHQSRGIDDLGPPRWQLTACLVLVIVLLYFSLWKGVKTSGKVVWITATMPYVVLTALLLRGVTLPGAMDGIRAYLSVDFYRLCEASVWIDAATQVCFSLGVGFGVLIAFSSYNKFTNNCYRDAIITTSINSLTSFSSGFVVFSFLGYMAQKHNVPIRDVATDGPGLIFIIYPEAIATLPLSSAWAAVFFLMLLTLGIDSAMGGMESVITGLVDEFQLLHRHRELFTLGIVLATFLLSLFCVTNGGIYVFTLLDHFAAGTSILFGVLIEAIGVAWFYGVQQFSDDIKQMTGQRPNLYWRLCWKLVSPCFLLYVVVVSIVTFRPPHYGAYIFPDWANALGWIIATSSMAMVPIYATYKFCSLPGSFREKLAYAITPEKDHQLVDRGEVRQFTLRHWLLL

[3] = biological target: Sodium-dependent serotonin transporter (Rattus norvegicus, UniProt P31652); experiment: Displacement of [3H]citalopram from SERT in Sprague-Dawley rat brainstem incubated for 60 mins by scintillation counting analysis; type: tissue-based
Sequence of Sodium-dependent serotonin transporter (P31652 whole entry): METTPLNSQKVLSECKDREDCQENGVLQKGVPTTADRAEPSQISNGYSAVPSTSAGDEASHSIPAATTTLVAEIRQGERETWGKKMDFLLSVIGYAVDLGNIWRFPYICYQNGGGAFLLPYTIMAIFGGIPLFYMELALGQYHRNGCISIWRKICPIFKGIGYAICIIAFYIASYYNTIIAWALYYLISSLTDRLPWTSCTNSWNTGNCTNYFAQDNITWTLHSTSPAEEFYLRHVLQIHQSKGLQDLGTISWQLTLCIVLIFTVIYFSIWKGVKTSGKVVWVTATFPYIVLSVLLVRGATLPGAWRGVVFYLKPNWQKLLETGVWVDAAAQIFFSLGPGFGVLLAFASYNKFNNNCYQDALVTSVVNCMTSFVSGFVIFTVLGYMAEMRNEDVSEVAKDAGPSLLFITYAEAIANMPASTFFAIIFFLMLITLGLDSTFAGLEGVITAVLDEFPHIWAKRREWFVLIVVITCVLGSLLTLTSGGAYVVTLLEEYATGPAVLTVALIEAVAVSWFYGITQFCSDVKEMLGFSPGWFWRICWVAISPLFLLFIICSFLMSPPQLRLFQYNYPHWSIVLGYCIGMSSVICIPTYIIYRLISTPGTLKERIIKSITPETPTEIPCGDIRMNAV

[4] = biological target: T1, Sodium-dependent dopamine transporter (Homo sapiens, UniProt Q01959); experiment: Displacement of [3H]WIN35428 from wild type human DAT expressed in COS-7 cells incubated for 1.5 hrs by scintillation counting analysis; type: cell-based
T1 sequence (Q01959 whole entry): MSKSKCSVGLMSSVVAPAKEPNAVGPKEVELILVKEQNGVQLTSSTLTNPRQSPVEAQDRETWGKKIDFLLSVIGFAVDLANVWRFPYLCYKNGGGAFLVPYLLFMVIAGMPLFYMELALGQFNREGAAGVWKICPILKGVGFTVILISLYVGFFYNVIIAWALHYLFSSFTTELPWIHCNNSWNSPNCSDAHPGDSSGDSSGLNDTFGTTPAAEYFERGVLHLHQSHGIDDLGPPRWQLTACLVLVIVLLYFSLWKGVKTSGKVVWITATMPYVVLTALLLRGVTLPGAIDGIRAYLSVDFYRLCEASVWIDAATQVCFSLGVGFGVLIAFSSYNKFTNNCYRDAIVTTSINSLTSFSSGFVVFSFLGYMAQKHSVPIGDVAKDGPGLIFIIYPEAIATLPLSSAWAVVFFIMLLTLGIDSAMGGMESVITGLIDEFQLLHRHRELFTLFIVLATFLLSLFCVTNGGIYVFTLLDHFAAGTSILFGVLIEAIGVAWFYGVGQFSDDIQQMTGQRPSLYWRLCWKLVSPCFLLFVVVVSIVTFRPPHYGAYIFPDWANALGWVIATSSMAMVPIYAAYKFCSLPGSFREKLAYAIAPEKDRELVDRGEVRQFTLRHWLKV

[5] = Metabolic stability of the compound in rat liver microsomes assessed as parent compound remaining at 10 uM measured after 60 mins in presence of NADPH regenerating system by LC/MS analysis; type: ADME, Microsome; conditions: for Stability: microsomes, 1 h, 10 µM
[6] = Displacement of [3H]nisoxetine from NET in Sprague-Dawley rat prefrontal cortex incubated for 180 mins by microbeta microscintillation counting analysis; type: tissue-based
[7] = biological target: T1, Sodium-dependent dopamine transporter; experiment: Inhibition of [3H]dopamine uptake from wild type human DAT expressed in COS-7 cells preincubated for 30 mins followed by [3H]dopamine addition and measured after 5 mins by beta scintillation counting analysis; type: cell-based
[8] = Displacement of [3H]WIN35428 from human DAT Y156F mutant expessed in COS-7 cells incubated for 1.5 hrs by beta scintillation counting analysis; type: cell-based
[9] = Induction of behavioural effects in wild type C57BL/6J mouse assessed as locomotor activity at 3 to 30 mg/kg, ip measured every 10 mins for 3 hrs by open field test; type: toxicity, organism-based; conditions: in vivo, dose 3-30 mg/kg
[10] = Metabolic stability of the compound in mouse liver microsomes assessed as parent compound remaining at 10 uM measured after 60 mins in presence of NADPH regenerating system by LC/MS analysis; type: ADME, Microsome; conditions: read-out: Stability
[11] = Inhibition of [3H]dopamine uptake from human DAT Y335A mutant expressed in COS-7 cells preincubated for 30 mins followed by [3H]dopamine addition and measured after 10 mins by beta scintillation counting analysis; type: cell-based
[12] = Induction of behavioural effects in wild type C57BL/6J mouse assessed as increase in locomotor activity at 30 mg/kg, ip measured after 20 mins by open field test; type: toxicity, organism-based; conditions: in vivo

C[C@H](O)CN1CCC(CCSC(c2ccc(F)cc2)c2ccc(F)cc2)CC1
Ratio Ki [1]: 35
Ki [2]: 34.5 nM
Ki [3]: 1200 nM

COc1ccc(CC(O)CN2CCCN(CCSC(c3ccc(F)cc3)c3ccc(F)cc3)CC2)cc1 (configuration not stated)
Ratio Ki [1]: 22
Ki [2]: 16.5 nM
Ki [3]: 360 nM

[O-][S+](CCN1CCN(c2ccncc2)CC1)C(c1ccc(F)cc1)c1ccc(F)cc1 (configuration not stated)
Ratio Ki [1]: 1
Ki [2]: 2480 nM
Ki [3]: 3460 nM

CC(O)CN1CCC(CC[S+]([O-])C(c2ccc(F)cc2)c2ccc(F)cc2)CC1 (configuration not stated)
Ki [4]: 355 nM
Ratio Ki [1]: 89
Stability [5]: 100%
Ki [6]: > 100000 nM
Ki [7]: 949 nM
Ki [8]: 2360 nM
Ki [2]: 180 nM
Ki [3]: 16100 nM
Activity [9]: Non-Toxic

OC(Cc1ccccc1)CN1CCCN(CCSC(c2ccc(F)cc2)c2ccc(F)cc2)CC1 (configuration not stated)
Ratio Ki [1]: 40
Ki [2]: 7.23 nM
Ki [3]: 288 nM

CC(O)CN1C(C)CN(CCSC(c2ccc(F)cc2)c2ccc(F)cc2)CC1C (configuration not stated)
remaining at 1 h, 10 µM [10]: 68%

[O-][S+](CCC1CCN(CC(O)Cc2ccccc2)CC1)C(c1ccc(F)cc1)c1ccc(F)cc1 (configuration not stated)
Ratio Ki [1]: 310
Stability [5]: 68%
Ki [2]: 2.64 nM
Ki [3]: 818 nM

C[C@H](O)CN1CCC(CC[S+]([O-])C(c2ccc(F)cc2)c2ccc(F)cc2)CC1 (some centres not stated)
Ratio Ki [1]: 37
Ki [2]: 382 nM
Ki [3]: 14300 nM

OC(Cc1ccc(F)cc1)CN1CCCN(CCSC(c2ccc(F)cc2)c2ccc(F)cc2)CC1 (configuration not stated)
Ratio Ki [1]: 35
Ki [2]: 14.3 nM
Ki [3]: 504 nM

CC(O)CN1CCN(CCSC(c2ccc(F)cc2)c2ccc(F)cc2)CC1 (configuration not stated)
remaining at 1 h, 10 µM [10]: 6%

CC(O)CN1CCCN(CCSC(c2ccc(F)cc2)c2ccc(F)cc2)CC1 (configuration not stated)
Ki [4]: 80 nM
Ratio Ki [1]: 38
Ki [7]: 163 nM
Ki [8]: 232 nM
Ki [2]: 63.4 nM
Ki [3]: 2430 nM
remaining at 1 h, 10 µM [10]: 12%
Ki [11]: 3300 nM

Fc1ccc(C(SCCN2CCN(c3ncccn3)CC2)c2ccc(F)cc2)cc1
Ratio Ki [1]: 1
Ki [2]: 725 nM
Ki [3]: 923 nM

[O-][S+](CCN1CCN(CC(O)Cc2ccccc2)CC1)C(c1ccc(F)cc1)c1ccc(F)cc1 (configuration not stated)
Ki [4]: 10.7 nM
Ki [7]: 0.806 nM
Ki [8]: 116 nM
Activity [12]: Toxic
remaining at 1 h, 10 µM [10]: 34%
Ki [11]: 537 nM

OC(Cc1ccccc1)CN1CCC(CCSC(c2ccc(F)cc2)c2ccc(F)cc2)CC1 (configuration not stated)
Ratio Ki [1]: 34
Ki [2]: 5.83 nM
Ki [3]: 201 nM

CC(O)CN1CCC(CCSC(c2ccc(F)cc2)c2ccc(F)cc2)CC1 (configuration not stated)
Ratio Ki [1]: 29
Ki [2]: 67 nM
Ki [3]: 1920 nM

Fc1ccc(C(SCCN2CCN(c3ccncc3)CC2)c2ccc(F)cc2)cc1
Ki [4]: 106 nM
Ratio Ki [1]: 1
Ki [7]: 326 nM
Ki [8]: 393 nM
Ki [2]: 91.6 nM
Ki [3]: 136 nM
Ki [11]: 4050 nM

C[C@@H](O)CN1CCC(CC[S+]([O-])C(c2ccc(F)cc2)c2ccc(F)cc2)CC1 (some centres not stated)
Ratio Ki [1]: 126
Ki [2]: 276 nM
Ki [3]: 34800 nM

Fc1ccc(C(SCCN2CCCN(c3ncccn3)CC2)c2ccc(F)cc2)cc1
Ratio Ki [1]: 1
Ki [2]: 508 nM
Ki [3]: 732 nM

CC(F)CN1[C@H](C)CN(CCSC(c2ccc(F)cc2)c2ccc(F)cc2)C[C@@H]1C (some centres not stated)
Ratio Ki [1]: 99
Ki [2]: 135 nM
Ki [3]: 13400 nM

CC(F)CN1[C@H](C)CN(CC[S+]([O-])C(c2ccc(F)cc2)c2ccc(F)cc2)C[C@@H]1C (some centres not stated)
Ratio Ki [1]: > 95
Ki [2]: 1050 nM
Ki [3]: > 100000 nM

CC(O)CN1CCN(CC[S+]([O-])C(c2ccc(F)cc2)c2ccc(F)cc2)CC1 (configuration not stated)
Ki [4]: 1020 nM
remaining at 1 h, 10 µM ([5]; liver microsomes, read-out: Stability): 72%
Ki [7]: 917 nM
Ki [8]: 7560 nM
Activity [9]: Non-Toxic
Ki [11]: 14400 nM

[O-][S+](CCN1CCCN(CC(O)Cc2ccc(F)cc2)CC1)C(c1ccc(F)cc1)c1ccc(F)cc1 (configuration not stated)
Ratio Ki [1]: 316
Ki [2]: 6.81 nM
Ki [3]: 2150 nM
remaining at 1 h, 10 µM [10]: 15%

COc1ccc(N2CCN(CC[S+]([O-])C(c3ccc(F)cc3)c3ccc(F)cc3)CC2)cc1 (configuration not stated)
Ratio Ki [1]: 3
Ki [2]: 6300 nM
Ki [3]: 18100 nM

[O-][S+](CCN1CCCN(CC(O)Cc2ccccc2)CC1)C(c1ccc(F)cc1)c1ccc(F)cc1 (configuration not stated)
Ki [4]: 32 nM
Ratio Ki [1]: 421
Ki [6]: 4040 nM
Ki [7]: 40 nM
Ki [8]: 184 nM
Ki [2]: 8.37 nM
Ki [3]: 3520 nM
Activity [9]: Non-Toxic
remaining at 1 h, 10 µM [10]: 0%
Ki [11]: 1440 nM

C[C@@H](O)CN1CCC(CCSC(c2ccc(F)cc2)c2ccc(F)cc2)CC1
Ratio Ki [1]: 9
Ki [2]: 84.5 nM
Ki [3]: 759 nM

CC(O)CN1CCCN(CC[S+]([O-])C(c2ccc(F)cc2)c2ccc(F)cc2)CC1 (configuration not stated)
Ratio Ki [1]: 62
Ki [2]: 417 nM
Ki [3]: 26000 nM

COc1ccc(N2CCN(CCSC(c3ccc(F)cc3)c3ccc(F)cc3)CC2)cc1
Ratio Ki [1]: 1
Ki [2]: 662 nM
Ki [3]: 780 nM

[O-][S+](CCN1CCCN(c2ncccn2)CC1)C(c1ccc(F)cc1)c1ccc(F)cc1 (configuration not stated)
Ratio Ki [1]: 1
Ki [2]: 24800 nM
Ki [3]: 28000 nM

COc1ccc(CC(O)CN2CCCN(CC[S+]([O-])C(c3ccc(F)cc3)c3ccc(F)cc3)CC2)cc1 (configuration not stated)
Ratio Ki [1]: 80
Ki [2]: 33.4 nM
Ki [3]: 2670 nM
remaining at 1 h, 10 µM [10]: 20%

[O-][S+](CCN1CCN(c2ncccn2)CC1)C(c1ccc(F)cc1)c1ccc(F)cc1 (configuration not stated)
Ratio Ki [1]: 2
Ki [2]: 22100 nM
Ki [3]: 46300 nM
